In US9693992B2 (MannKind Corporation, priority 2010, dated 2017):

Target: IRE-1α (Homo sapiens (Human), UniProt O75460)
Test: Cellular EC50: endogenous XBP-1 splicing in myeloma cells (MM.1s, DTT stress, RT-PCR)
Format: cell-based
Conditions: average cellular EC50, XBP-1 splicing in myeloma cells
Experimental: Human myeloma MM.1s cells are incubated with a compound for 1.25 hours before stressing the cells with 2 mM dithiothreitol (DTT). After an additional 45 minutes (2 hours total) with compound and DTT, the cells are harvested with TRIZOL® (a mono-phasic solution of phenol and guanidine isothiocyanate), and total RNA is prepared as directed by the manufacturer (Invitrogen). Human XBP-1 is amplified by RT-PCR with the following primers, which flank the 26 base unconventional intron excised by IRE-1α:
RT-PCR of unstressed (U) cells then generates the upper band. When cells are stressed (S) with the endoplasmic reticulum (ER) stressing agent DTT, IRE-1α is activated due to accumulating unfolded protein and the resulting RT-PCR product is 26 base pairs shorter.
Compounds which pass specificity assays are assayed for cellular EC50 using endogenous XBP-1 splicing in myeloma cells. XBP-1 is regulated through the excision of a 26 nucleotide intron from the XBP-1 mRNA by the highly specific endoribonuclease activity of IRE-1α. […] This splicing event is used to measure IRE-1α activity on XBP-1 mRNA in cells and tissues.
Briefly, compounds are incubated in the presence or absence of an ER stress agent (e.g., DTT), and the ratio of XBP-1u (unspliced) to XBP-1s (spliced) is quantified by RT-PCR. The ED50 is determined as the 50% XBP-1s to total XPB-1 levels.

Sequence of IRE-1α (O75460 19-977): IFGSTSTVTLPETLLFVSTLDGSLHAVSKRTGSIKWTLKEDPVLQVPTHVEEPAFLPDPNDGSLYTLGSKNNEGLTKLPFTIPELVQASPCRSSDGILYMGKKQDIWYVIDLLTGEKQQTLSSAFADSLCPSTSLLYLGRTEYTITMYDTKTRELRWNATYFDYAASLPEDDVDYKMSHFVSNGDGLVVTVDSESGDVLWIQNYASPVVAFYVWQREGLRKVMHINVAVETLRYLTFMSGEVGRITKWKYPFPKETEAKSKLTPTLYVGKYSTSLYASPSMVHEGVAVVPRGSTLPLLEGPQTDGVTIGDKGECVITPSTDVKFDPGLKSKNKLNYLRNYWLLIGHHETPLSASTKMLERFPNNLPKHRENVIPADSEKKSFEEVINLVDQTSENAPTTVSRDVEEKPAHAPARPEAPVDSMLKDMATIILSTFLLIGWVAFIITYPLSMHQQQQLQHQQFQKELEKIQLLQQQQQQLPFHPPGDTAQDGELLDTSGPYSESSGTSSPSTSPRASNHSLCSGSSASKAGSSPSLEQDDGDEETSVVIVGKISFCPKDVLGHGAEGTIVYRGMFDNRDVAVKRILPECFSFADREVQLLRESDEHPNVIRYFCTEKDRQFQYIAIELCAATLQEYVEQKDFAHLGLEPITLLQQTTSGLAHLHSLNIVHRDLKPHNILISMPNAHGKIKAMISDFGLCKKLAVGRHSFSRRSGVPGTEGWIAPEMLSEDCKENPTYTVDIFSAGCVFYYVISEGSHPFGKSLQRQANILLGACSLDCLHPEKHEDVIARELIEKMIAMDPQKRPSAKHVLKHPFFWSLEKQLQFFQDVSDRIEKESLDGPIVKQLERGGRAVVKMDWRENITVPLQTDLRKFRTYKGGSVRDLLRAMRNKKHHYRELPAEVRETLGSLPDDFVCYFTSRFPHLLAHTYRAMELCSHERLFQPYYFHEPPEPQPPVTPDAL

SMILES	EC50 [µM]
COCCOc1cc(O)c(C=O)c2oc(=O)c(CCC(=O)NCCN3CCOCC3)c(C)c12 [Example 156]	> 10
COCCOc1cc(O)c(C=O)c2oc(=O)c(CCC(=O)NCCN(C)C)c(C)c12 [Example 157]	> 10
CCOC(=O)Cc1c(C)c2c(OCCOC)cc(O)c(C=O)c2oc1=O [Example 158]	< 10
COCCNC(=O)Cc1c(C)c2c(OCCOC)cc(O)c(C=O)c2oc1=O [Example 159]	< 10
COCCOc1cc(O)c(C=O)c2oc(=O)c(CC(=O)N3CCOCC3)c(C)c12 [Example 160]	< 10
COCCOc1cc(O)c(C=O)c2oc(=O)c(CC(=O)N3CCN(C)CC3)c(C)c12 [Example 161]	< 10
CCNC(=O)Cc1c(C)c2c(OCCOC)cc(O)c(C=O)c2oc1=O [Example 162]	< 10
COCCOc1cc(O)c(C=O)c2oc(=O)c(CC(=O)NCCN3CCOCC3)c(C)c12 [Example 163]	< 10
COCCOc1cc(O)c(C=O)c2oc(=O)c(CC(=O)NCCN(C)C)c(C)c12 [Example 164]	> 10
COCCOc1cc(O)c(C=O)c2oc(=O)c(C)c(C)c12 [Example 165]	< 10
COCCNC(=O)Cc1c(C)c2cc(OC)c(O)c(C=O)c2oc1=O [Example 166]	< 10
COc1cc2c(C)c(CC(=O)N3CCN(C)CC3)c(=O)oc2c(C=O)c1O [Example 168]	< 10
CCNC(=O)Cc1c(C)c2cc(OC)c(O)c(C=O)c2oc1=O [Example 169]	< 10
COc1cc2c(C)c(CC(=O)NCCN(C)C)c(=O)oc2c(C=O)c1O [Example 170]	< 10
COCCNC(=O)CCc1c(C)c2cc(OC)c(O)c(C=O)c2oc1=O [Example 171]	< 10
COc1cc2c(C)c(CCC(=O)N3CCOCC3)c(=O)oc2c(C=O)c1O [Example 172]	< 10
COc1cc2c(C)c(CCC(=O)N3CCN(C)CC3)c(=O)oc2c(C=O)c1O [Example 173]	< 10
CCNC(=O)CCc1c(C)c2cc(OC)c(O)c(C=O)c2oc1=O [Example 174]	< 10
COc1cc2c(C)c(CCC(=O)NCCN(C)C)c(=O)oc2c(C=O)c1O [Example 175]	> 10
COCCNC(=O)Cc1c(C)c2c(OC)cc(O)c(C=O)c2oc1=O [Example 176]	< 10
COc1cc(O)c(C=O)c2oc(=O)c(CC(=O)N3CCOCC3)c(C)c12 [Example 177]	< 10

SMILES	EC50 [µM]
COc1cc(O)c(C=O)c2oc(=O)c(CC(=O)N3CCN(C)CC3)c(C)c12 [Example 178]	< 10
COc1cc(O)c(C=O)c2oc(=O)c(CC(=O)NCCN3CCOCC3)c(C)c12 [Example 179]	< 10
COc1cc(O)c(C=O)c2oc(=O)c(CC(=O)NCCN(C)C)c(C)c12 [Example 180]	< 10
COCCOc1cc2c(C)c(CCC(=O)N3CCOCC3)c(=O)oc2c(C=O)c1O [Example 181]	< 10
COCCOc1cc2c(C)c(CCC(=O)N3CCN(C)CC3)c(=O)oc2c(C=O)c1O [Example 182]	< 10
CCNC(=O)CCc1c(C)c2cc(OCCOC)c(O)c(C=O)c2oc1=O [Example 183]	< 10
COCCNC(=O)CCc1c(C)c2cc(OCCOC)c(O)c(C=O)c2oc1=O [Example 184]	< 10
COCCOc1cc2c(C)c(CCC(=O)NCCN(C)C)c(=O)oc2c(C=O)c1O [Example 185]	> 10
COCCOc1cc2c(C)c(CCC(=O)NCCN3CCOCC3)c(=O)oc2c(C=O)c1O [Example 186]	> 10
COCCOc1cc2c(C)c(CC(=O)NCCN3CCOCC3)c(=O)oc2c(C=O)c1O [Example 187]	< 10
COCCOc1cc2c(C)c(CC(=O)N3CCOCC3)c(=O)oc2c(C=O)c1O [Example 188]	< 10
COCCOc1cc2c(C)c(CC(=O)N3CCN(C)CC3)c(=O)oc2c(C=O)c1O [Example 189]	< 10
COCCNC(=O)Cc1c(C)c2cc(OCCOC)c(O)c(C=O)c2oc1=O [Example 190]	< 10
CCNC(=O)Cc1c(C)c2cc(OCCOC)c(O)c(C=O)c2oc1=O [Example 191]	< 10
COc1cc(O)c(C=O)c2oc(=O)c(CCC(=O)N3CCOCC3)c(C)c12 [Example 192]	< 10
COc1cc(O)c(C=O)c2oc(=O)c(CCC(=O)N3CCN(C)CC3)c(C)c12 [Example 193]	< 10
COCCNC(=O)CCc1c(C)c2c(OC)cc(O)c(C=O)c2oc1=O [Example 194]	< 10
COc1cc(O)c(C=O)c2oc(=O)c(CCC(=O)NCCN(C)C)c(C)c12 [Example 195]	< 10
COc1cc(O)c(C=O)c2oc(=O)c(CCC(=O)NCCN3CCOCC3)c(C)c12 [Example 196]	< 10
COc1cc2c(C(F)(F)F)cc(=O)oc2c(C=O)c1O [Example 197]	< 10
COc1cc2c3c(c(=O)oc2c(C=O)c1O)CCC3 [Example 198]	< 10

SMILES	EC50 [µM]
COc1cc2c(C)c(C)c(=O)oc2c(C=O)c1O [Example 199]	> 10
COc1cc2c(C)c(C(C)C)c(=O)oc2c(C=O)c1O [Example 200]	> 10
Cc1c(CCC(=O)NCCN2CCOCC2)c(=O)oc2c(C=O)c(O)ccc12 [Example 201]	< 10
COCCNC(=O)CCc1c(C)c2cc(OCCN3CCOCC3)c(O)c(C=O)c2oc1=O [Example 202]	> 10
Cc1c(C)c2cc(OCCN3CCOCC3)c(O)c(C=O)c2oc1=O [Example 203]	< 10
CCNC(=O)CCc1c(C)c2cc(OCCN3CCOCC3)c(O)c(C=O)c2oc1=O [Example 204]	> 10
COCCNC(=O)Cc1c(C)c2cc(OCCN3CCOCC3)c(O)c(C=O)c2oc1=O [Example 205]	10
Cc1c(CC(=O)N2CCOCC2)c(=O)oc2c(C=O)c(O)c(OCCN3CCOCC3)cc12 [Example 206]	10
COc1cc2c(=O)c(CC(=O)N3CCOCC3)c(C)oc2c(C=O)c1O [Example 207]	> 10
COc1cc2c(=O)c(CC(=O)N3CCN(C)CC3)c(C)oc2c(C=O)c1O [Example 208]	> 10
CCNC(=O)Cc1c(C)oc2c(C=O)c(O)c(OC)cc2c1=O [Example 209]	< 10
COc1cc2c(=O)c(CC(=O)NCCN3CCOCC3)c(C)oc2c(C=O)c1O [Example 210]	> 10
COc1cc2c(=O)c(CC(=O)NCCN(C)C)c(C)oc2c(C=O)c1O [Example 211]	> 10
COCCNC(=O)CCc1c(C)oc2c(C=O)c(O)c(OC)cc2c1=O [Example 212]	> 10
CCNC(=O)CCc1c(C)oc2c(C=O)c(O)c(OC)cc2c1=O [Example 213]	> 10
COc1cc2c(=O)c(CCC(=O)NCCN(C)C)c(C)oc2c(C=O)c1O [Example 214]	> 10
COCCNC(=O)CCc1c(C)oc2c(C=O)c(O)ccc2c1=O [Example 215]	< 10
Cc1oc2c(C=O)c(O)ccc2c(=O)c1CCC(=O)N1CCOCC1 [Example 216]	< 10
CCNC(=O)CCc1c(C)oc2c(C=O)c(O)ccc2c1=O [Example 217]	< 10
Cc1oc2c(C=O)c(O)ccc2c(=O)c1CCC(=O)NCCN(C)C [Example 218]	> 10
Cc1oc2c(C=O)c(O)ccc2c(=O)c1CCC(=O)NCCN1CCOCC1 [Example 219]	> 10

SMILES	EC50 [µM]
COCCNC(=O)Cc1c(C)oc2c(C=O)c(O)ccc2c1=O [Example 220]	< 10
Cc1oc2c(C=O)c(O)ccc2c(=O)c1CC(=O)N1CCOCC1 [Example 221]	> 10
Cc1oc2c(C=O)c(O)ccc2c(=O)c1CC(=O)N1CCN(C)CC1 [Example 222]	< 10
CCNC(=O)Cc1c(C)oc2c(C=O)c(O)ccc2c1=O [Example 223]	< 10
Cc1oc2c(C=O)c(O)ccc2c(=O)c1CC(=O)NCCN(C)C [Example 224]	> 10
Cc1oc2c(C=O)c(O)ccc2c(=O)c1CC(=O)NCCN1CCOCC1 [Example 225]	> 10
COCCNC(=O)Cc1c(C)oc2c(C=O)c(O)cc(OC)c2c1=O [Example 226]	< 10
COc1cc(O)c(C=O)c2oc(C)c(CC(=O)N3CCOCC3)c(=O)c12 [Example 227]	< 10
CCNC(=O)Cc1c(C)oc2c(C=O)c(O)cc(OC)c2c1=O [Example 228]	< 10
Cn1c(CCC(=O)N2CCOCC2)nc2ccc(O)c(C=O)c21 [Example 229]	> 10
CCNC(=O)CCc1nc2c(C=O)c(O)ccc2n1C [Example 230]	> 10
COCCNC(=O)CCc1nc2c(C=O)c(O)ccc2[nH]1 [Example 231]	> 10
O=Cc1c(O)ccc2[nH]c(CCC(=O)N3CCOCC3)nc12 [Example 232]	> 10
CN1CCC(NC(=O)CCc2nc3c(C=O)c(O)ccc3[nH]2)CC1 [Example 233]	< 10
CCNC(=O)CCc1nc2c(C=O)c(O)ccc2[nH]1 [Example 234]	> 10
O=Cc1c(O)ccc2nc(CCC(=O)NCCN3CCOCC3)[nH]c12 [Example 235]	> 10
CN(C)CCNC(=O)CCc1nc2c(C=O)c(O)ccc2[nH]1 [Example 236]	> 10
COCCNC(=O)CCc1nc2ccc(O)c(C=O)c2n1C [Example 237]	> 10
Cn1c(CCC(=O)NCCN2CCOCC2)nc2ccc(O)c(C=O)c21 [Example 238]	> 10
CN1CCN(C(=O)CCc2nc3ccc(O)c(C=O)c3n2C)CC1 [Example 239]	> 10
